Experimental findings from patent publication US8835476B2, “Synthesis of novel antimicrobials” (priority 2005, dated 2014) are described below.

For orientation: inhibition means the drop in the measured response relative to a control, in per cent.

SMILES strings stand for the structures.

For this experiment, the target named is T1, recombinant E. coli LpxA (Escherichia coli, UniProt P0A722).
T1 construct: 6xHis (C); made in house; host or cells: E. coli BL21 (pET23b)
T1 sequence (P0A722 whole entry): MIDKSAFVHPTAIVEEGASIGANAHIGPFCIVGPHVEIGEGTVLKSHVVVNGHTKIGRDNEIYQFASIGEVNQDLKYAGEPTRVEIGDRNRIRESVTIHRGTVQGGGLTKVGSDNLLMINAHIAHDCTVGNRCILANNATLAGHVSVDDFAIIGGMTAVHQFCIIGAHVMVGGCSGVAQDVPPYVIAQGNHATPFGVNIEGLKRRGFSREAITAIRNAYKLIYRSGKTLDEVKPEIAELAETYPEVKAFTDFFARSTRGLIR
Kind of experiment: LpxA assay: acyl-UDP-GlcNAc formation from UDP-[3H]GlcNAc, TLC. Type of experiment: biochemical. Conditions: 5 mM compound; FIG. 8. From the text:
The lpxA gene was amplified from an E. coli genomic library and inserted into a pET23b vector using standard recombinant DNA methodology. The 5′ oligonucleotide for amplification of the LpxA open reading frame was 5′-[…]-3′ (SEQ ID NO. 1) and contains a BamHI restriction enzyme site upstream of the LpxA ATG start codon and the 3′ oligonucleotide was 5′-[…]-3′ (SEQ ID NO. 2) and contains a XhoI restriction enzyme site downstream of the final codon of the LpxA open reading frame. Primers were custom synthesized. The primers were designed such that digestion of the amplification product would result in addition of a C-terminal 6×-His tag in frame with the LpxA open reading frame. Specifically, E. coli genomic DNA was isolated and an amplification reaction was carried out as follows: 33 μl water, 5 μl 10× reaction buffer, 1.5 μl of 50 mM magnesium sulfate, 3 μl of 10 mM dNTPs, 3 μl of a 50 μM solution of the 5′ LpxA primer, 3 μl of a 50 μM solution of the 3′ LpxA primer, 0.5 μl of E. coli genomic DNA solution, and 1 μl of polymerase. The reaction conditions were as follows: 94° C. for 2 minutes; followed by 30 cycles of 94° C. for 30 seconds, 50° C. for 30 seconds, 68° C. for 1.5 minutes, followed by an extension at 68° C. for 7 minutes. The resulting LpxA product was separated from other DNA on a 0.8% agarose gel and isolated from the gel. The LpxA open reading frame was cloned into a topoisomerase I-activated vector and transformed into E. coli. […] The newly synthesized plasmid containing the BamHI- and XhoI-flanked LpxA open reading frame and plasmid pET23a were digested with BamHI and XhoI at 37° C. for 2 hours, DNA was separated by agarose gel electrophoresis, isolated from the gel, and ligated. Ligation reactions were transformed into chemically competent E. coli and plasmid DNA was isolated. Restriction mapping was performed to determine which plasmids contained the LpxA open reading frame. To remove the T7 epitope coding sequence from the 5′end of the LpxA open reading frame, the pET23a plasmid containing the LpxA open reading frame was digested with the restriction enzymes BamHI and XhoI and a pET23b plasmid was digested with BglII and XhoI, DNA was separated by agarose gel electrophoresis, isolated from the gel, and ligated. Ligation reactions were transformed into chemically competent E. coli and plasmid DNA was isolated. Restriction mapping was performed to assess plasmids containing the LpxA open reading frame.
A 5 ml culture of E. Coli BL21 cells expressing the LpxA-6×His plasmid was grown overnight at 37° C. in LB medium containing 50 μg/ml ampicillin and 34 μg/ml chloramphenicol, then subcultured into 500 ml of the same medium and grown at 37° C. until A600=0.6. LpxA expression was induced by addition of 0.5 mM IPTG for three hours. The cells were centrifuged at 7 000×g for 10 minutes at 4° C. and lysed using a mild, nonionic detergent. The soluble fraction containing LpxA was added to 1 ml of nickel affinity resin in a 15 ml Falcon tube; the resin was washed extensively with extraction/wash buffer (50 mM Na-phosphate (pH 7.0) and 300 mM NaCl) prior to use. This mixture was incubated on a rotating platform at low speed for 20 minutes at room temperature. The resin was centrifuged at 1000 rpm in a bench top centrifuge for 2 min, washed twice (10 min each) with 10 ml of extraction/wash buffer, resuspended in 10 ml of extraction/wash buffer, and transferred to a 10 ml polypropylene disposable protein purification column. The column was eluted with 5 ml of 50 mM Na-phosphate (pH 7.0) containing 300 mM NaCl and 150 mM imidazole, collected in 1 ml fractions. The eluate was analysed by SDS-PAGE and was visualised using a protein stain (FIG. 7 inset).
Recombinant Vibrio harveyi acyl carrier protein was prepared from a GST fusion protein as described previously (Flaman et al., 2001). […]
In the case of `O=C(O)c1cc(-c2nnn[nH]2)c(-c2cccc3ccccc23)s1` [DNM-121H, 5-(Naphthalen-1-yl)-4-(1H-tetrazol-5-yl)thiophene-2-carboxylic acid], the inhibition at 5000 µM is > 70%.

As to `COc1cccc(-c2sc(C(=O)O)cc2-c2nnnn2C)c1` [DNM-122D, 5-(3-Methoxyphenyl)-4-(1-methyl-1H-tetrazol-5-yl)thiophene-2-carboxylic acid], the inhibition at 5000 µM was > 70%.

Turning to `Cn1nnnc1-c1cc(C(=O)O)sc1-c1ccc(-c2ccccc2)cc1` [DNM-122G, 5-(4-biphenylyl)-4-(1-methyl-1H-tetrazol-5-yl)thiophene-2-carboxylic acid], the inhibition at 5000 µM is > 80%.

As to `Cn1nnnc1-c1cc(C(=O)O)sc1-c1cccc2ccccc12` [DNM-122H, 5-(Naphthalen-1-yl)-4-(1-methyl-1H-tetrazol-5-yl)thiophene-2-carboxylic acid], the inhibition at 5000 µM was > 80%.

Regarding `Cn1nnc(-c2cc(C(=O)O)sc2-c2cccc(F)c2)n1` [DNM-123A, 5-(3-Fluorophenyl)-4-(2-methyl-2H-tetrazol-5-yl)thiophene-2-carboxylic acid], the inhibition at 5000 µM is > 70%.

`COc1cccc(-c2sc(C(=O)O)cc2-c2nnn(C)n2)c1` [DNM-123D, 5-(3-Methoxyphenyl)-4-(2-methyl-2H-tetrazol-5-yl)thiophene-2-carboxylic acid]: the inhibition at 5000 µM was > 80%.

Consider `COc1ccc(-c2sc(C(=O)O)cc2-c2nnn(C)n2)cc1` [DNM-123E, 5-(4-Methoxyphenyl)-4-(2-methyl-2H-tetrazol-5-yl)thiophene-2-carboxylic acid], for which the inhibition at 5000 µM is > 70%.

Turning to `COc1ccccc1-c1sc(C(=O)O)cc1-c1nnn(C)n1` [DNM-123F, 5-(2-Methoxyphenyl)-4-(2-Methyl-2H-tetrazol-5-yl)thiophene-2-carboxylic acid], the inhibition at 5000 µM was > 80%.

Turning to `Cn1nnc(-c2cc(C(=O)O)sc2-c2ccc(-c3ccccc3)cc2)n1` [DNM-123G, 5-(4-biphenylyl)-4-(2-methyl-2H-tetrazol-5-yl)thiophene-2-carboxylic acid], the inhibition at 5000 µM was > 80%.

In the case of `Cn1nnc(-c2cc(C(=O)O)sc2-c2cccc3ccccc23)n1` [DNM-123H, 5-(Naphthalen-1-yl)-4-(2-methyl-2H-tetrazol-5-yl)thiophene-2-carboxylic acid], the inhibition at 5000 µM was > 80%.

Regarding `Cn1nnc(-c2cc(C(=O)O)sc2-c2ccccn2)n1` [DNM-123I, 5-(Pyridin-2-yl)-4-(2-methyl-2H-tetrazol-5-yl)thiophene-2-carboxylic acid], the inhibition at 5000 µM was > 70%.

As to `CCOC(=O)c1cc(-c2nnn[nH]2)c(-c2cccc(F)c2)s1` [DNM-124A, Ethyl 5-(3-fluorophenyl)-4-(1H-tetrazol-5-yl)thiophene-2-carboxylate], the inhibition at 5000 µM is > 80%.

For `CCOC(=O)c1cc(-c2nnn[nH]2)c(-c2ccccn2)s1` [DNM-124I, Ethyl 5-(pyridin-2-yl)-4-(1H-tetrazol-5-yl)thiophene-2-carboxylate], the inhibition at 5000 µM was > 80%.

Turning to `Oc1cccc(-c2cc(-c3nnn[nH]3)c(-c3cccc(O)c3)s2)c1` [DNM-131A, 5-(2,5-Bis(3-hydroxyphenyl)thiophen-3-yl)-1H-tetrazole], the inhibition at 5000 µM is > 80%.

As to `Oc1ccc(-c2cc(-c3nnn[nH]3)c(-c3ccc(O)cc3)s2)cc1` [DNM-131C, 5-(2,5-Bis(4-hydroxyphenyl)thiophen-3-yl)-1H-tetrazole], the inhibition at 5000 µM is > 80%.

For `O=C(O)c1ccc(-c2cc(-c3nnn[nH]3)c(-c3ccc(C(=O)O)cc3)s2)cc1` [DNM-131E, 5-(2,5-Bis(4-carboxyphenyl)thiophen-3-yl)-1H-tetrazole], the inhibition at 5000 µM was > 80%.

Consider `NC(=O)c1ccc(-c2cc(-c3nnn[nH]3)c(-c3ccc(C(N)=O)cc3)s2)cc1` [DNM-131F, 5-(2,5-Bis(4-carbamoylphenyl)thiophen-3-yl)-1H-tetrazole], for which the inhibition at 5000 µM is > 80%.

As to `NC(=O)c1cccc(-c2cc(-c3nnn[nH]3)c(-c3cccc(C(N)=O)c3)s2)c1` [DNM-131H, 5-(2,5-Bis(3-carbamoylphenyl)thiophen-3-yl)-1H-tetrazole], the inhibition at 5000 µM was > 70%.

`CCOC(=O)c1ccc(-c2cc(-c3nnn[nH]3)c(-c3ccc(C(=O)OCC)cc3)s2)cc1` [DNM-131J, 5-(2,5-Bis(4-(ethoxylcarbonyl)phenyl)thiophen-3-yl)-1H-tetrazole]: the inhibition at 5000 µM was > 80%.

In the case of `COC(=O)c1ccccc1-c1cc(-c2nnn[nH]2)c(-c2ccccc2C(=O)OC)s1` [DNM-131K, 5-(2,5-Bis(2-(methoxylcarbonyl)phenyl)thiophen-3-yl)-1H-tetrazole], the inhibition at 5000 µM was > 70%.

`c1ccc(Cc2cc(-c3nnn[nH]3)c(Cc3ccccc3)s2)cc1` [DNM-131O, 5-(2,5-Dibenzylthiophen-3-yl)-1H-tetrazole]: the inhibition at 5000 µM is > 80%.

For the compound `Cn1nnc(-c2cc(-c3cccc(O)c3)sc2-c2cccc(O)c2)n1` [DNM-132A, 5-(2,5-Bis(3-hydroxyphenyl)thiophen-3-yl)-2-methyl-2H-tetrazole], the inhibition at 5000 µM is > 80%.

With `Cn1nnc(-c2cc(-c3ccc(O)cc3)sc2-c2ccc(O)cc2)n1` [DNM-132C, 5-(2,5-Bis(4-hydroxyphenyl)thiophen-3-yl)-2-methyl-2H-tetrazole], the inhibition at 5000 µM was > 80%.

For the compound `Cn1nnc(-c2cc(-c3cccc(C(=O)O)c3)sc2-c2cccc(C(=O)O)c2)n1` [DNM-132G, 5-(2,5-Bis(3-carboxyphenyl)thiophen-3-yl)-2-methyl-2H-tetrazole], the inhibition at 5000 µM was > 80%.

Regarding `Cn1nnnc1-c1cc(-c2cccc(O)c2)sc1-c1cccc(O)c1` [DNM-133A, 5-(2,5-Bis(3-hydroxyphenyl)thiophen-3-yl)-1-methyl-1H-tetrazole], the inhibition at 5000 µM was > 80%.

Regarding `Cn1nnnc1-c1cc(-c2ccc(O)cc2)sc1-c1ccc(O)cc1` [DNM-133C, 5-(2,5-Bis(4-hydroxyphenyl)thiophen-3-yl)-1-methyl-1H-tetrazole], the inhibition at 5000 µM was > 80%.

`Cn1nnnc1-c1cc(-c2ccc(C(=O)O)cc2)sc1-c1ccc(C(=O)O)cc1` [DNM-133E, 5-(2,5-Bis(4-carboxyphenyl)thiophen-3-yl)-1-methyl-1H-tetrazole]: the inhibition at 5000 µM is > 70%.
